Data set [1] in a line: CellTiter-Glo Luminescent Cell Viability Assay (cytotoxicity). The format is cell-based. Conditions: African green monkey; Vero cells, 3-5 days in culture. The procedure: Cytotoxicity: To determine the cytotoxicity of the compounds in Vero cells, the CellTiter-Glo Luminescent Cell Viability Assay (Promega) was used. The compounds were tested at 6-8 concentrations in three replicates. Control conditions include vehicle-only treated cells to set 100% surviving cells, DMSO-killed cells as a cell death-inducing control, and no cells for 0% surviving cells. Cytotoxicity is measured after 3-5 days in culture by the change/decrease in relative light units (RLUs) in each sample which reflects the amount of ATP present (an indicator of metabolically active cells).
The 50% cellular cytotoxicity (CC50) value is calculated based on the RLUs of the compound-treated samples using vehicle-only control as 100% survival and no cells as 0% survival.
For orientation: In ATP-based viability assays light output follows the ATP content of the culture.

In data set [2] the test system is dengue virus (DENV serotype 2, strain New Guinea C). Description: microbe, parasite or virus in culture. Conditions: DENV2, 120 h, virus yield reduction in Vero cells, 5 days. The data set is classed as cell-based.
Data set [3] concerns Venezuelan Equine Encephalitis Virus (VEEV TC-83 stain). The experiment in a line: microbe, parasite or virus in culture. The format is cell-based. Conditions: Vero, 72 h, read-out: IC50 Venezuelan Equine Encephalitis TC-83 (VEEV).
Data set [4] in a line: Aqueous solubility in gastric and intestinal fluids (Cerep). The format is physicochemical. The procedure:
(§1) Assays for drug likeness (solubility, microsomal stability, plasma protein binding, A-B efflux, cytochrome CYP450 3A4, hERG binding, and Ames) were carried out by Cerep (Washington USA, and France) using standard protocols for in vitro testing. Assay protocols are provided online at http://www.cerep.fecerep/users/pages/catalog/profiles/catalog.asp and Cerep standard procedures and concentrations were used for all assays.

Data set [5] is described as follows: In vivo pharmacokinetics and oral bioavailability in rat. On the set-up: species or system male Sprague-Dawley rats. Conditions: male, Sprague-Dawley, plasma. The protocol: In vivo pharmacokinetic parameters and oral bioavailability for UV-0060 was determined by Eurofins (Cerep Panlabs, Taiwan). A pharmacokinetic study following oral and intravenous administrations was performed using male Sprague-Dawley rats. Test article was formulated in 2% DMSO/0.9% NaCl and administered orally (PO) at 10 mg/kg and intravenously (IV) at 5 mg/kg to groups of 3 rats. The dosing volume was 10 mL/kg for PO and 5 mL/kg for IV. Rats weighing 220±20 g were used. Blood samples were harvested at 3, 10, 30, 60, 120, 240, 360, 720 and 1440 minutes after intravenous injection and at 10, 30, 60, 120, 240, 360, 720 and 1440 minutes after oral administration. Blood was collected in tubes coated with lithium heparin, mixed gently, then kept on ice and centrifuged at 2,500×g for 15 minutes at 4° C., within 1 hour of collection. The plasma was harvested and kept frozen at −80° C. until further processing. A plasma calibration curve from 3-10000 ng/mL was generated using oxybutynin as internal standard. Aliquots of drug-free plasma were spiked with the test compound at the specified concentration levels. Plasma samples were processed using acetonitrile precipitation and analyzed by HPLC/MS/MS. The spiked plasma samples were processed together with the unknown plasma samples using the same procedure. HPLC/MS/MS analysis was carried out with electrospray ionization in positive ion mode with multiple reaction monitoring. HPLC column was Agilent Poroshell 120 EC-C18 column 2.7 μm (3.0×50 mm, 23° C.) with an acetonitrile/water/formic acid mobile phase gradient. Standards data were fitted linearly with a 1/x2 weighting.

The nature of data set [6]: Human microsomal stability (Cerep). The data set is classed as in vitro ADME. Conditions: human microsomes; read-out: Human microsomal stability: t½. The protocol: as §1
A short description of data set [7]: Human plasma protein binding (Cerep). The data set is classed as in vitro ADME. The procedure:
as §1

A short description of data set [8]: A-B Efflux (Caco2) (Cerep). The format is in vitro ADME. Conditions: human, Caco-2. The protocol:
as §1
A general note: Caco-2 cells form a polarised layer with tight junctions and transporters.

Data set [9] deals with T1, CYP3A4 (Homo sapiens, UniProt P08684).
T1 construct: Cerep
The experiment in a line: CYP450 3A4 inhibition (Cerep). The format is in vitro ADME. The procedure:
as §1

Data set [10] can be described thus: Ames (Cerep). Conditions: with or without S9 activation. The procedure:
as §1

Data set [11] is described as follows: Aqueous solubility in acidified water. Conditions: aqueous buffer; in acidified water pH~4. The data set is classed as physicochemical.
Data set [12] is described as follows: In vivo pharmacokinetics in mouse. Conditions: plasma.
A short description of data set [13]: In vivo pharmacokinetics in guinea pig. Conditions: plasma.
The mark [14] stands for this setting: Mouse, single dose, tested IV, oral routes.
Where [15] appears, read: Guinea pig, single dose, tested IV, SQ, IM routes.

T1 sequence (P08684 whole entry): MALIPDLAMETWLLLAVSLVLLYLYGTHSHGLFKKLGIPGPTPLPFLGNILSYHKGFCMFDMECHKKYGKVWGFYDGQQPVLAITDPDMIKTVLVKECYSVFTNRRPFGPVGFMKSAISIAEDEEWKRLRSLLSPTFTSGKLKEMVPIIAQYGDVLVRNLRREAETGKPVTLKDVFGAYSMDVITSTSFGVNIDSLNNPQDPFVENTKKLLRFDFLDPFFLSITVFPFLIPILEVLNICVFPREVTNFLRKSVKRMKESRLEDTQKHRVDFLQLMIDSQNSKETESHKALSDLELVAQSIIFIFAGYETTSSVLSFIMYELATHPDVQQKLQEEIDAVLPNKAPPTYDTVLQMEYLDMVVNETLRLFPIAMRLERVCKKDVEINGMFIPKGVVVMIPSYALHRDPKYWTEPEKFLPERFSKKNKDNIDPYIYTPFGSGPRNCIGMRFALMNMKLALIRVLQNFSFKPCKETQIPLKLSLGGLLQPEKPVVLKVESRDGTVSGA

As for `O=[N+]([O-])c1cc(-n2nccn2)ccc1NCCCCCCN1C[C@H](O)[C@@H](O)[C@H](O)[C@H]1CO` [UV-0060], the CC50 (as a rule, the concentration that lowers cell viability or growth by half) in [1] was 245 µM. In addition, the IC50 (usually the concentration at which inhibition is half-maximal) in [2] came to 5 µM; in data set [3] it was 94.1 µM. Also, the solubility (in general, the concentration that dissolves in the medium under given conditions) is over 200 µM in [4] (gastric fluid, simulated gastric fluid, read-out: Aqueous solubility in gastric fluid) and over 200 µM in data set [4] (intestinal fluid, fassgf or other biorelevant, read-out: Aqueous solubility in intestinal fluid). Also, the bioavailability in [5] (PO 10 mg/kg vs IV 5 mg/kg) was found to be 6%. In [5] (single dose, IV 5 mg/kg), this molecule returned a clearance of 72.9 mL/min/kg. Also, the half-life is 2.8 h in data set [5] (single dose, IV 5 mg/kg, read-out: T1/2 (IV)); 2.2 h in data set [5] (single dose, PO 10 mg/kg, read-out: T1/2 (PO)); over 1 h in data set [6]. Also, the time of peak concentration (Tmax) (usually the time from dosing to the highest level) in data set [5] (single dose, PO 10 mg/kg) was determined as 2.2 h. Further, the fraction unbound (usually the share of the substance not bound to proteins or other matrix) at 10 microM in [7] is 0.12. The apical-to-basolateral permeability (Papp A→B) (commonly how fast a substance crosses the layer from the apical side) in [8] is about 0.3 ×10⁻⁶ cm/s. The inhibition (commonly how much of the control response was suppressed) at 10 µM in [9] was 0.2%. The Ames entry in data set [10] was “Ames: negative with or without S9”.
`OC[C@@H]1[C@@H](O)[C@H](O)[C@@H](O)CN1CCCCCCCCc1ccco1` [UV-30, (2R,3R,4R,5S)-1-(8-(furan-2-yl)octyl)-2-(hydroxymethyl)piperidine-3,4,5-triol]: in data set [1], the half-maximal cytotoxic concentration (CC50) is at least 125 µM. In addition, the half-inhibitory concentration (IC50) in data set [2] came out at 7 µM; in [3] it was 14 µM.
In data set [11], `[N-]=[N+]=Nc1ccc(NCCCCCCN2C[C@H](O)[C@@H](O)[C@H](O)[C@H]2CO)c([N+](=O)[O-])c1` [UV-5] registered a solubility of over 112 mg/mL. Also, the half-life in data set [12] (mouse, Mouse, single dose, tested IV, oral routes, read-out: T1/2) is 4.09 to 8.96 h; in data set [12] (mouse, mice, read-out: Plasma t½), about 4 h; in data set [13] (guinea pig, Guinea pig, single dose, tested IV, SQ, IM routes, read-out: T½) it was 1.62 to 3.99 h; in [13] (guinea pig, guinea pig, read-out: Plasma t½) it was 1.62 h. For the same molecule, the bioavailability in data set [12] (mouse, mice, oral) was 80%; in [13] (other: IM, Guinea pig, IM, SC), 187 to 198%. The Cmax (commonly the peak of the concentration-time curve) is 14400 ng/mL in data set [12] (setting [14]) and 2320 to 3790 ng/mL in data set [13] (setting [15]). In addition, the Tmax in data set [12] (setting [14]) was 1 h; in data set [13] (setting [15]) it was 0.75 to 1.13 h. The clearance in data set [13] (guinea pig) came to 233 mL/min/kg. Moreover, in data set [13] (guinea pig, read-out: Vss), the Vd is 16.9 L/kg.

The values are drawn from patent US10428022B2, “Iminosugars useful for the treatment of viral diseases” (Emergent Virology, LLC, priority 2014, dated 2019).
